Results as given in publication PMC7367283, “A PIP2 substitute mediates voltage sensor-pore coupling in KCNQ activation” (Communications Biology, 2020).

Target: IKs channels (Homo sapiens, UniProt P51787)
Experiment: Inside-out patch clamp of IKs channels expressed in Xenopus oocytes (rundown and rescue)
Assay type: cell-based
Settings: 10 µM CP1 on intracellular side; pulses to +80 mV
Source text: We tested whether CP1 can mimic PIP2 in mediating VSD-pore coupling. We co-expressed KCNQ1 with the voltage-dependent lipid phosphatase CiVSP[44] in Xenopus oocytes and recorded KCNQ1 currents using two-electrode voltage clamp with consecutive depolarizing voltage pulses. The current increased upon KCNQ1 activation at the beginning of the first voltage pulse (First trace, Fig. 2a) and then declined due to CiVSP activation to deplete PIP2[18]. A subsequent voltage pulse elicited much smaller KCNQ1 currents (Rundown trace, Fig. 2a) as a result of PIP2 depletion that had insufficient time to be replenished by endogenous enzymes between the pulses. […] Similarly, the IKs channel (KCNQ1 + KCNE1) currents decrease upon co-expression with CiVSP with consecutive voltage pulses (Fig. 2c, d), which is similar to our previous observations. […] To more directly test CP1 effects, we applied CP1 to the intracellular side of the inside-out membrane patch that expressed IKs channels. […]
Macroscopic currents expressed in Xenopus oocytes were recorded from inside-out patches formed with borosilicate pipettes of 0.5–1.0-MΩ resistance. […]

O=S(=O)([O-])Oc1c(-c2sc3c(ccc4cccc(Cl)c43)c2OS(=O)(=O)[O-])[nH]c2ccc(Br)cc12.[Na+].[Na+] [CP1, DISODIUM 5-BROMO-2-[9-CHLORO-3-(SULFONATOOXY) NAPHTHO [1,2-B] THIEN-2-YL]-1H-INDOL-3-YL SULFATE]
IKs current after rundown in inside-out patch: the current increased with consecutive voltage pulses
